Reference: patent US20250129103A1, “METHODS FOR TREATMENT OF CANCER” (Frontier Medicines Corporation, priority 2022, published 2025)
Values after ≈ are worked out from the molar mass of the structure shown.

How the values were obtained:
[1] = target: KRAS G12C (GMPPNP-loaded) and cRAF (Ras-binding domain) interaction (Homo sapiens (Human), UniProt P01116, C118S/C51S/C80L/G12C); assay: Inhibition of KRAS G12C and cRAF binding (AlphaScreen); settings: KRAS G12C loaded with GMPPNP, cRaf RBD, 2 hours preincubation; read-out: Raf-1 RBD K-Ras IC50
How it was run: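 AlphaScreen readout (680 nm excitation, 570 nm emission) of RBD binding after a 60-90 min bead step at room temperature. This step follows 2 h compound exposure of GMPPNP-preloaded KRAS G12C in Hepes pH 7.4 buffer with MgCl2 and 10 μM GMPPNP.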

[2] = target: KRAS G12C (GMPPNP-loaded) and PI3Ka (Ras-binding domain) interaction (Homo sapiens (Human), UniProt P01116, C118S/C51S/C80L/G12C); assay: Inhibition of KRAS G12C and PI3Ka binding (AlphaScreen); settings: KRAS G12C loaded with GMPPNP, PI3Ka RBD, 2 hours preincubation; read-out: PI3K RBD K-Ras IC50
Protocol: The AlphaScreen technology was used to determine IC50S for compound inhibition of KRAS G12C (present as the Cys-light (C51S, C80L and C118S), truncated version comprising amino acids 1-169) and PI3Ka interaction. Compounds were diluted in 100% DMSO and each compound concentration was spotted at 200 nl/well onto low volume, white 384 well plates. The KRAS G12C contained a biotin-AviTag and the PI3Ka, as Ras-binding domain (amino acids 157-300, RBD), was His-tagged. KRAS G12C was preloaded with the GTP analogue Guanosine 5′-[β,γ-imido]triphosphate (GMPPNP). The KRAS G12C was diluted in 25 mM Hepes, pH 7.4, 150 mM NaCl, 5 mM MgCl2, 0.01% TritonX-100 and 10 μM GMPPNP and added at 10 ul/well to compound-spotted plates resulting in a DMSO concentration of 2%. Plates were incubated for 2 hours. A mixture of RBD and the AlphaScreen streptavidin donor and nickel chelate acceptor beads diluted in 25 mM Hepes, pH 7.4, 150 mM NaCl, 5 mM MgCl2, 0.01% TritonX-100 and 2% DMSO was then added at 10 ul/well and incubated for 60-90 minutes before the samples were read for emission at 570 nm after excitation of the donor beads at 680 nm. All incubations were performed at room temperature. The final top compound concentration was 50 μM with 1:3 titrations for 10-point dose response curves. Final assay conditions were 1.5 nM KRAS G12C, 100 nM RBD, 1.25 ug/ml of AlphaScreen donor beads and 10 μg/ml AlphaLISA acceptor beads. IC50s were determined using nonlinear regression fit of [inhibitor] vs. response (4 parameters). […]

[3] = Determination of logD (1-octanol / phosphate buffer pH 7.4); format: physicochemical; settings: 1-octanol/phosphate buffer, pH 7.4, pH 7.4, 1-octanol/phosphate buffer; read-out: Log D, pH 7.4
How it was run: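 Each phase analysed by LCMS after 1 h shaking at 800 rpm and centrifugation, room temperature. Phases were mutually saturated 1-octanol and 100 mM phosphate buffer at pH 7.4. LogD derived from the phase concentrations.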

[4] = Determination of kinetic solubility (pH 7.4); format: physicochemical; settings: phosphate buffer, pH 7.4, aqueous buffer, kinetic from dmso stock, 50 mM phosphate buffer pH 7.4, read-out: Ksol, pH 7.4
How it was run: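 Solubility taken from filtrate peak areas on a calibration curve (HPLC-UV, LC-MS/MS). Before filtration and centrifugation, compound was shaken for 2 h at room temperature in pH 7.4 50 mM phosphate buffer.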

KRAS G12C (GMPPNP-loaded) and cRAF (Ras-binding domain) interaction, sequence (P01116 other isoform, or with tags, fused parts or gaps G12C/C51S/C80L/C118S): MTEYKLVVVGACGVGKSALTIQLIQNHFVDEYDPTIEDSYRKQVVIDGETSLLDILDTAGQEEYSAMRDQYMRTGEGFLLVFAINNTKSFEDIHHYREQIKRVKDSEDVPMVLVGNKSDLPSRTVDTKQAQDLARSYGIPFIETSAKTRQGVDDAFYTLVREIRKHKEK
KRAS G12C (GMPPNP-loaded) and PI3Ka (Ras-binding domain) interaction, sequence (P01116 other isoform, or with tags, fused parts or gaps G12C/C51S/C80L/C118S): as above

IC50 [1] [nM]	IC50 [2] [nM]	logD [3]	solubility kinetic at 2 h [4] [µg/mL]	SMILES
< 10	< 10	3.09		Cc1cc(N)nc(C2Cc3nc(OC[C@@]45CCCN4C[C@H](F)C5)nc(N4CCN(C(=O)/C=C/C5CCN5C)[C@@H](CC#N)C4)c3CC2C)c1C(F)(F)F (mixture of isomers) [Example 68, 2-((2S)-4-(7-(6-amino-4-methyl-3-(trifluoromethyl)pyridin-2-yl)-2-(((2R,7aS)-2-fluorohexahydro-1H-pyrrolizin-7a-yl)methoxy)-6-methyl-5,6,7,8-tetrahydroquinazolin-4-yl)-1-((E)-3-(1-methylazetidin-2-yl)acryloyl)piperazin-2-yl)acetonitrile]
10 to 100	< 10	4.42		Cc1noc(/C=C/C(=O)N2CCN(c3nc(OC[C@@]45CCCN4C[C@H](F)C5)nc4c3CCN(c3cccc5cccc(Cl)c35)C4)C[C@@H]2CC#N)n1 [Compound 2, 2-((S)-4-(7-(8-chloronaphthalen-1-yl)-2-(((2R,7aS)-2-fluorohexahydro-1H-pyrrolizin-7a-yl)methoxy)-5,6,7,8-tetrahydropyrido[3,4-d]pyrimidin-4-yl)-1-((E)-3-(3-methyl-1,2,4-oxadiazol-5-yl)acryloyl)piperazin-2-yl)acetonitrile]
< 10	< 10	4.78	0.01 (≈ 0.0134 µM)	N#CC[C@H]1CN(c2nc(OC[C@@]34CCCN3C[C@H](F)C4)nc3c2CCN(c2cccc4cccc(Cl)c24)C3)CCN1C(=O)/C=C/c1nc(C(F)F)no1 [Compound 18]
< 10	< 10	3.33	24.4 (≈ 33.5 µM)	N#CC[C@H]1CN(c2nc(OCC34CCCN3CCC4)nc3c2CCN(c2cccc4cccc(Cl)c24)C3)CCN1C(=O)/C=C/c1nc(C(F)F)no1 [Compound 19]
10 to 100	10 to 100	3.38	12.5 (≈ 17.3 µM)	N#CC[C@H]1CN(c2nc(OCC34CCCN3CCC4)nc3c2CCN(c2cccc4cccc(Cl)c24)C3)CCN1C(=O)/C=C/c1nc(C2CC2)no1 [Compound 23]
> 500	≥ 500	4.9	0.01 (≈ 0.0141 µM)	CCc1noc(/C=C/C(=O)N2CCN(c3nc(OCC45CCCN4CCC5)nc4c3CCN(c3cccc5cccc(Cl)c35)C4)C[C@@H]2CC#N)n1 [Compound 25]
100 to 500	100 to 500	2.66	80.2 (≈ 111 µM)	CCc1noc(/C=C/C(=O)N2CCN(c3nc(OCC45CCCN4CCC5)nc4c(F)c(-c5cccc6cccc(Cl)c56)ncc34)C[C@@H]2CC#N)n1 [Compound 26]
10 to 100	10 to 100	3.09	2.33 (≈ 3.16 µM)	CC(C)(C)c1noc(/C=C/C(=O)N2CCN(c3nc(OCC45CCCN4CCC5)nc4c3CCN(c3cccc5cccc(Cl)c35)C4)C[C@@H]2CC#N)n1 [Compound 30]
10 to 100	10 to 100	4.35	0.01 (≈ 0.0133 µM)	CC(C)(C)c1noc(/C=C/C(=O)N2CCN(c3nc(OC[C@@]45CCCN4C[C@H](F)C5)nc4c3CCN(c3cccc5cccc(Cl)c35)C4)C[C@@H]2CC#N)n1 [Compound 31]
10 to 100	10 to 100	2.71	110 (≈ 148 µM)	N#CC[C@H]1CN(c2nc(OC[C@@]34CCCN3C[C@H](F)C4)nc3c(F)c(-c4cccc5cccc(Cl)c45)ncc23)CCN1C(=O)/C=C/CN1CCOCC1 [Compound 48]
< 10	< 10	3.72	45.2 (≈ 62 µM)	N#CC[C@H]1CN(c2nc(OC[C@@]34CCCN3C[C@H](F)C4)nc3c2CCN(c2cccc4cccc(Cl)c24)C3)CCN1C(=O)/C=C/CN1CCOCC1 [Compound 49]
< 10	< 10	2.27	124 (≈ 171 µM)	N#CC[C@H]1CN(c2nc(OCC34CCCN3CCC4)nc3c2CCN(c2cccc4ccc(F)c(Cl)c24)C3)CCN1C(=O)/C=C/CN1CCOCC1 [Compound 50]
< 10	< 10	3.8	23.8 (≈ 31.8 µM)	N#CC[C@H]1CN(c2nc(OC[C@@]34CCCN3C[C@H](F)C4)nc3c2CCN(c2cccc4ccc(F)c(Cl)c24)C3)CCN1C(=O)/C=C/CN1CCOCC1 [Compound 52]
< 10	< 10	2.82	111 (≈ 146 µM)	N#CC[C@H]1CN(c2nc(OC[C@@]34CCCN3C[C@H](F)C4)nc3c(F)c(-c4cccc5ccc(F)c(Cl)c45)ncc23)CCN1C(=O)/C=C/CN1CCOCC1 [Compound 53]
< 10	< 10	2.59	135 (≈ 185 µM)	CN1CCC1/C=C/C(=O)N1CCN(c2nc(OC[C@@]34CCCN3C[C@H](F)C4)nc3c(F)c(-c4cccc5ccc(F)c(Cl)c45)ncc23)C[C@@H]1CC#N (stereo partly drawn) [Compound 54]
10 to 100	10 to 100	1.53	128 (≈ 169 µM)	Cc1cc(N)nc(-c2ncc3c(N4CCN(C(=O)/C=C/CN5CCOCC5)[C@@H](CC#N)C4)nc(OC[C@@]45CCCN4C[C@H](F)C5)nc3c2F)c1C(F)(F)F [Compound 55]
< 10	< 10	1.83	110 (≈ 143 µM)	CCO[C@H]1CCN(C/C=C/C(=O)N2CCN(c3nc(OC[C@@]45CCCN4C[C@H](F)C5)nc4c(F)c(-c5cccc6cccc(Cl)c56)ncc34)C[C@@H]2CC#N)C1 [Compound 91, 2-((S)-4-(7-(8-chloronaphthalen-1-yl)-8-fluoro-2-(((2R,7aS)-2-fluorohexahydro-1H-pyrrolizin-7a-yl)methoxy)pyrido[4,3-d]pyrimidin-4-yl)-1-((E)-4-((S)-3-ethoxypyrrolidin-1-yl)but-2-enoyl)piperazin-2-yl)acetonitrile]
< 10	< 10	3.35	104 (≈ 135 µM)	CCO[C@@H]1CCN(C/C=C/C(=O)N2CCN(c3nc(OC[C@@]45CCCN4C[C@H](F)C5)nc4c(F)c(-c5cccc6cccc(Cl)c56)ncc34)C[C@@H]2CC#N)C1 [Compound 92, 2-((S)-4-(7-(8-chloronaphthalen-1-yl)-8-fluoro-2-(((2R,7aS)-2-fluorohexahydro-1H-pyrrolizin-7a-yl)methoxy)pyrido[4,3-d]pyrimidin-4-yl)-1-((E)-4-((R)-3-ethoxypyrrolidin-1-yl)but-2-enoyl)piperazin-2-yl)acetonitrile]

SMILES	IC50 [1] [nM]	IC50 [2] [nM]	logD [3]	solubility kinetic at 2 h [4] [µg/mL]
N#CC[C@H]1CN(c2nc(OC[C@@]34CCCN3C[C@H](F)C4)nc3c(F)c(-c4cccc5ccc(F)c(F)c45)ncc23)CCN1C(=O)/C=C/CN1[C@@H]2CC[C@H]1COC2 [Compound 93, 2-((S)-1-((E)-4-((1R,5S)-3-oxa-8-azabicyclo[3.2.1]octan-8-yl)but-2-enoyl)-4-(7-(7,8-difluoronaphthalen-1-yl)-8-fluoro-2-(((2R,7aS)-2-fluorotetrahydro-1H-pyrrolizin-7a(5H)-yl)methoxy)pyrido[4,3-d]pyrimidin-4-yl)piperazin-2-yl)acetonitrile]	< 10	< 10	3.07	72.4 (≈ 94 µM)
N#CC[C@H]1CN(c2nc(OC[C@@]34CCCN3C[C@H](F)C4)nc3c(F)c(-c4cccc5cccc(F)c45)ncc23)CCN1C(=O)/C=C/CN1[C@@H]2CC[C@H]1COC2 [Compound 94, 2-((S)-1-((E)-4-((1R,5S)-3-oxa-8-azabicyclo[3.2.1]octan-8-yl)but-2-enoyl)-4-(8-fluoro-7-(8-fluoronaphthalen-1-yl)-2-(((2R,7aS)-2-fluorotetrahydro-1H-pyrrolizin-7a(5H)-yl)methoxy)pyrido[4,3-d]pyrimidin-4-yl)piperazin-2-yl)acetonitrile]	< 10	< 10	3.11	90.2 (≈ 120 µM)
